Reference: patent US12077503B2, “Substituted cyclic amides and their use as herbicides” (FMC CORPORATION, priority 2015, dated 2024)

How the values were obtained:
Assay type in all cases: in vivo
Kochia (Kochia scoparia) [1] = assay: Test A preemergence; details: for Plant response rating, Kochia: 125 g ai/ha, preemergence, 0 to 100 scale (0 no effect, 100 complete control); for Kochia plant response rating (0 to 100 scale, 0 is no effect, 100 is complete control): Preemergence, 500 g ai/ha, visual injury approx. 10 d
Summary of the method: (§1)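 Treatment is preemergence as a directed soil spray after planting, or postemergence at the one- to two-leaf stage, with test chemical in a non-phytotoxic solvent mixture plus surfactant. Plants stay in the greenhouse about 10 d before visual injury scoring on a 0 to 100 scale versus untreated controls.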

[2] = test system: barnyardgrass (Echinochloa crus-galli); assay: Test A preemergence; details: for Plant response rating, Barnyardgrass: 125 g ai/ha, preemergence, 0 to 100 scale (0 no effect, 100 complete control); for Barnyardgrass plant response rating (0 to 100 scale, 0 is no effect, 100 is complete control): Preemergence, 500 g ai/ha, visual injury approx. 10 d
Summary of the method: as §1

[3] = test system: giant foxtail (Setaria faberii); assay: Test A preemergence; details: for Plant response rating, Foxtail, Giant: 125 g ai/ha, preemergence, 0 to 100 scale (0 no effect, 100 complete control); for Foxtail, Giant plant response rating (0 to 100 scale, 0 is no effect, 100 is complete control): Preemergence, 500 g ai/ha, visual injury approx. 10 d
Summary of the method: as §1

[4] = test system: pigweed (Amaranthus retroflexus); assay: Test A preemergence; details: for Plant response rating, Pigweed: 125 g ai/ha; for Pigweed plant response rating (0 to 100 scale, 0 is no effect, 100 is complete control): 500 g ai/ha, visual injury approx. 10 d
[5] = test system: ragweed (common ragweed, Ambrosia elatior); assay: Test A preemergence; details: for Plant response rating, Ragweed: 125 g ai/ha; for Ragweed plant response rating (0 to 100 scale, 0 is no effect, 100 is complete control): 500 g ai/ha, visual injury approx. 10 d
Summary of the method: as §1

[6] = test system: ryegrass, Italian (Italian ryegrass, Lolium multiflorum); assay: Test A preemergence; details: for Plant response rating, Ryegrass, Italian: 125 g ai/ha; for Ryegrass, Italian plant response rating (0 to 100 scale, 0 is no effect, 100 is complete control): 500 g ai/ha, visual injury approx. 10 d
Summary of the method: as §1

[7] = test system: Galium (catchweed bedstraw, Galium aparine); assay: Test A postemergence; details: for Galium plant response rating: 125 g ai/ha, visual injury rating on 0 to 100 scale (0 no effect, 100 complete control), approx. 10 d; for Plant response rating, Galium: 500 g ai/ha
Summary of the method: as §1

Kochia (Kochia scoparia) [8] = assay: Test A postemergence; details: for Kochia plant response rating: 125 g ai/ha, visual injury rating on 0 to 100 scale (0 no effect, 100 complete control), approx. 10 d; for Plant response rating, Kochia: 500 g ai/ha
Summary of the method: as §1

[9] = test system: barnyardgrass (Echinochloa crus-galli); assay: Test A postemergence; details: postemergence; for Barnyardgrass plant response rating: 125 g ai/ha, visual injury rating on 0 to 100 scale (0 no effect, 100 complete control), approx. 10 d; for Plant response rating, Barnyardgrass: 500 g ai/ha, 0 to 100 scale, 0 no effect, 100 complete control
Summary of the method: as §1

[10] = test system: blackgrass (Alopecurus myosuroides); assay: Test A postemergence; details: postemergence; for Blackgrass plant response rating: 125 g ai/ha, visual injury rating on 0 to 100 scale (0 no effect, 100 complete control), approx. 10 d; for Plant response rating, Blackgrass: 500 g ai/ha, 0 to 100 scale, 0 no effect, 100 complete control
Summary of the method: as §1

corn (Zea mays) = assay: Test A postemergence; details: postemergence; for Corn plant response rating: 125 g ai/ha, visual injury rating on 0 to 100 scale (0 no effect, 100 complete control), approx. 10 d; for Plant response rating, Corn: 500 g ai/ha, 0 to 100 scale, 0 no effect, 100 complete control
Summary of the method: as §1

[11] = test system: giant foxtail (Setaria faberii); assay: Test A postemergence; details: for Foxtail, Giant plant response rating: 125 g ai/ha, visual injury rating on 0 to 100 scale (0 no effect, 100 complete control), approx. 10 d; for Plant response rating, Foxtail, Giant: 500 g ai/ha
Summary of the method: as §1

[12] = test system: pigweed (Amaranthus retroflexus); assay: Test A postemergence; details: for Pigweed plant response rating: 125 g ai/ha, visual injury rating on 0 to 100 scale (0 no effect, 100 complete control), approx. 10 d; for Plant response rating, Pigweed: 500 g ai/ha
Summary of the method: as §1

[13] = test system: ragweed (common ragweed, Ambrosia elatior); assay: Test A postemergence; details: for Ragweed plant response rating: 125 g ai/ha, visual injury rating on 0 to 100 scale (0 no effect, 100 complete control), approx. 10 d; for Plant response rating, Ragweed: 500 g ai/ha
Summary of the method: as §1

[14] = test system: ryegrass, Italian (Italian ryegrass, Lolium multiflorum); assay: Test A postemergence; details: for Ryegrass, Italian plant response rating: 125 g ai/ha, visual injury rating on 0 to 100 scale (0 no effect, 100 complete control), approx. 10 d; for Plant response rating, Ryegrass, Italian: 500 g ai/ha
Summary of the method: as §1

[15] = test system: wheat (Triticum aestivum); assay: Test A postemergence; details: for Wheat plant response rating: 125 g ai/ha, visual injury rating on 0 to 100 scale (0 no effect, 100 complete control), approx. 10 d; for Plant response rating, Wheat: 500 g ai/ha
Summary of the method: as §1

[16] = test system: barnyardgrass (Echinochloa crus-galli); assay: Test B flooded paddy test; details: Flood, 250 g ai/ha; 0 to 100 scale where 0 is no effect and 100 is complete control; 13 to 15 d
Summary of the method: (§2)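 Rating scale 0–100 (visual, vs untreated controls) after a 13–15 d greenhouse period; application to the flood layer, 3 cm above soil and maintained; plants at 2-leaf stage when treated.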

[17] = test system: ducksalad (Heteranthera limosa); assay: Test B flooded paddy test; details: Flood, 250 g ai/ha; 0 to 100 scale where 0 is no effect and 100 is complete control; 13 to 15 d
Summary of the method: as §2

rice (Oryra sativa) = assay: Test B flooded paddy test; details: Flood, 250 g ai/ha; 0 to 100 scale where 0 is no effect and 100 is complete control; 13 to 15 d
Summary of the method: as §2

[18] = test system: sedge, umbrella (small-flower umbrella sedge, Cyperus difformis); assay: Test B flooded paddy test; details: Flood, 250 g ai/ha; 0 to 100 scale where 0 is no effect and 100 is complete control; 13 to 15 d
Summary of the method: as §2

[19] = preemergence, 0 to 100 scale (0 no effect, 100 complete control)
[20] = postemergence, 0 to 100 scale, 0 no effect, 100 complete control
[21] = Preemergence, visual injury after approximately 10 d, 0 to 100 scale where 0 is no effect and 100 is complete control
[22] = Postemergence, 0 to 100 scale where 0 is no effect and 100 is complete control

Row | Compound | Plant response rating, Kochia (Kochia (Kochia scoparia) [1]) | Kochia plant response rating (0 to 100 scale, 0 is no effect, 100 is complete control) (Kochia (Kochia scoparia) [1]) | Plant response rating, Barnyardgrass [2] | Barnyardgrass plant response rating (0 to 100 scale, 0 is no effect, 100 is complete control) [2] | Plant response rating, Foxtail, Giant [3] | Foxtail, Giant plant response rating (0 to 100 scale, 0 is no effect, 100 is complete control) [3] | Pigweed plant response rating (0 to 100 scale, 0 is no effect, 100 is complete control) ([4]; Preemergence) | Ragweed plant response rating (0 to 100 scale, 0 is no effect, 100 is complete control) ([5]; Preemergence) | Ryegrass, Italian plant response rating (0 to 100 scale, 0 is no effect, 100 is complete control) ([6]; Preemergence) | Galium plant response rating ([7]; postemergence) | Kochia plant response rating (Kochia (Kochia scoparia) [8]; postemergence) | Barnyardgrass plant response rating [9] | Plant response rating, Barnyardgrass [9] | Blackgrass plant response rating [10] | Plant response rating, Blackgrass [10] | Corn plant response rating (corn (Zea mays)) | Plant response rating, Corn (corn (Zea mays)) | Foxtail, Giant plant response rating ([11]; postemergence) | Pigweed plant response rating ([12]; postemergence) | Ragweed plant response rating ([13]; postemergence) | also measured
1 | Cc1c(F)ccc(NC(=O)C2C(=O)NCC2c2cccc(C(F)(F)F)c2)c1F (stereo not drawn) [Compound 463] | 0 | 0 | 50 | 80 | 80 | 90 | 0 | 0 | 20 | 0 | 0 | 50 | 70 | 20 | 70 | 0 | 0 | 70 | 0 | 0 | Plant response rating, Pigweed [4, 19]: 0; Plant response rating, Ragweed [5, 19]: 0; Plant response rating, Ryegrass, Italian [6, 19]: 0; Plant response rating, Galium [7, 20]: 0; Plant response rating, Kochia (Kochia (Kochia scoparia) [8]; [20]): 0; Plant response rating, Foxtail, Giant [11, 20]: 70; Plant response rating, Pigweed [12, 20]: 0; Plant response rating, Ragweed [13, 20]: 0; Ryegrass, Italian plant response rating ([14]; postemergence): 0; Plant response rating, Ryegrass, Italian [14, 20]: 30; Wheat plant response rating ([15]; postemergence): 0; Plant response rating, Wheat [15, 20]: 0; Plant response rating, Barnyardgrass [16]: 25; Plant response rating, Ducksalad [17]: 70; Plant response rating, Rice (rice (Oryra sativa)): 0; Plant response rating, Sedge, Umbrella [18]: 0
2 | CCc1ccc(C2CNC(=O)C2C(=O)Nc2ccccc2F)cc1 (stereo not drawn) [Compound 466] | 0 | 0 | 90 | 90 | 70 | 90 | 0 | 30 | 20 | 0 | 0 | 80 | 90 | 30 | 60 | 0 | 30 | 20 | 0 | 0 | Plant response rating, Pigweed [4, 19]: 0; Plant response rating, Ragweed [5, 19]: 0; Plant response rating, Ryegrass, Italian [6, 19]: 0; Plant response rating, Galium [7, 20]: 0; Plant response rating, Kochia (Kochia (Kochia scoparia) [8]; [20]): 0; Plant response rating, Foxtail, Giant [11, 20]: 80; Plant response rating, Pigweed [12, 20]: 0; Plant response rating, Ragweed [13, 20]: 30; Ryegrass, Italian plant response rating ([14]; postemergence): 0; Plant response rating, Ryegrass, Italian [14, 20]: 20; Wheat plant response rating ([15]; postemergence): 0; Plant response rating, Wheat [15, 20]: 20; Plant response rating, Barnyardgrass [16]: 0; Plant response rating, Ducksalad [17]: 0; Plant response rating, Rice (rice (Oryra sativa)): 0; Plant response rating, Sedge, Umbrella [18]: 0
3 | CCc1ccc(C2CNC(=O)C2C(=O)Nc2cccc(F)c2F)cc1 (stereo not drawn) [Compound 467] | 30 | 50 | 90 | 90 | 90 | 100 | 0 | 70 | 20 | 0 | 0 | 80 | 90 | 0 | 0 | 0 | 20 | 40 | 0 | 0 | Plant response rating, Pigweed [4, 21]: 0; Plant response rating, Ragweed [5, 21]: 30; Plant response rating, Ryegrass, Italian [6, 21]: 0; Plant response rating, Galium [7, 22]: 0; Plant response rating, Kochia (Kochia (Kochia scoparia) [8]; [22]): 0; Plant response rating, Foxtail, Giant [11, 22]: 80; Plant response rating, Pigweed [12, 22]: 0; Plant response rating, Ragweed [13, 22]: 20; Ryegrass, Italian plant response rating ([14]; postemergence): 0; Plant response rating, Ryegrass, Italian [14, 22]: 40; Wheat plant response rating ([15]; postemergence): 0; Plant response rating, Wheat [15, 22]: 30; Plant response rating, Barnyardgrass [16]: 20; Plant response rating, Ducksalad [17]: 80; Plant response rating, Rice (rice (Oryra sativa)): 0; Plant response rating, Sedge, Umbrella [18]: 0
4 | CCc1ccc(C2CNC(=O)C2C(=O)Nc2ccccc2S(C)(=O)=O)cc1 (stereo not drawn) [Compound 468] | 40 | 80 | 0 | 20 | 0 | 80 | 50 | 70 | 0 | 20 | 0 | 0 | 30 | 0 | 20 | 0 | 0 | 0 | 0 | 0 | Plant response rating, Pigweed [4, 21]: 0; Plant response rating, Ragweed [5, 21]: 0; Plant response rating, Ryegrass, Italian [6, 21]: 0; Plant response rating, Galium [7, 22]: 30; Plant response rating, Kochia (Kochia (Kochia scoparia) [8]; [22]): 20; Plant response rating, Foxtail, Giant [11, 22]: 0; Plant response rating, Pigweed [12, 22]: 0; Plant response rating, Ragweed [13, 22]: 0; Ryegrass, Italian plant response rating ([14]; postemergence): 0; Plant response rating, Ryegrass, Italian [14, 22]: 0; Wheat plant response rating ([15]; postemergence): 0; Plant response rating, Wheat [15, 22]: 20; Plant response rating, Barnyardgrass [16]: 35; Plant response rating, Ducksalad [17]: 85; Plant response rating, Rice (rice (Oryra sativa)): 0; Plant response rating, Sedge, Umbrella [18]: 0
5 | CN1CC(c2ccc(C(F)(F)F)cc2F)C(C(=O)Nc2ccc(F)cc2F)C1=O (stereo not drawn) [Compound 474] | 60 | 70 | 90 | 90 | 90 | 90 | 90 | 20 | 50 | 40 | 50 | 90 | 90 | 30 | 50 | 0 | 20 | 90 | 30 | 0 | Plant response rating, Pigweed [4, 21]: 30; Plant response rating, Ragweed [5, 21]: 0; Plant response rating, Ryegrass, Italian [6, 21]: 0; Plant response rating, Galium [7, 22]: 50; Plant response rating, Kochia (Kochia (Kochia scoparia) [8]; [22]): 60; Plant response rating, Foxtail, Giant [11, 22]: 90; Plant response rating, Pigweed [12, 22]: 30; Plant response rating, Ragweed [13, 22]: 0; Ryegrass, Italian plant response rating ([14]; postemergence): 20; Plant response rating, Ryegrass, Italian [14, 22]: 50; Wheat plant response rating ([15]; postemergence): 0; Plant response rating, Wheat [15, 22]: 30; Plant response rating, Barnyardgrass [16]: 30; Plant response rating, Ducksalad [17]: 80; Plant response rating, Rice (rice (Oryra sativa)): 0; Plant response rating, Sedge, Umbrella [18]: 0
